From ChEMBL document CHEMBL1150834, “Novel halogenated metabolites from the Malaysian Laurencia pannosa” (2001)

What was measured:
Format in all cases: functional
[1] = tested on: Chromobacterium violaceum; experiment: Antibacterial activity against Chromobacterium violaceum after 24 hrs by paper disk method
Proteus mirabilis = experiment: Antibacterial activity against Proteus mirabilis after 24 hrs by paper disk method
Vibrio cholerae = experiment: Antibacterial activity against Vibrio cholerae after 24 hrs by paper disk method

SMILES	MIC [1] [µg]	MIC (Proteus mirabilis) [µg]	MIC (Vibrio cholerae) [µg]
C#C/C=C\C[C@@H]1O[C@H]2C[C@@H]1O[C@H](CC)[C@@H](Br)C[C@@H]2Cl	100		
C[C@@H]1[C@]2(CC[C@@](C)(Cl)[C@H](Br)C2)[C@]2(C)CC[C@@]1(C)O2 [PANNOSANE]	60		
C=C1[C@@H](C)CC[C@@](C)(O)[C@@]12CC[C@@](C)(Cl)[C@H](Br)C2 [PANNOSANOL]	100	60	100
